Assay results published in patent US20120052573A1, “ONE-POT SYNTHESIS OF LINEAR-LIKE POLYETHYLENIMINE FOR INTRACELLULAR IMAGING AND NUCLEIC ACID DELIVERY” (NATIONAL HEALTH RESEARCH INSTITUTES, priority 2010, published 2012).

System: H460 human lung cancer cells
Assay: Flow cytometry cell cycle arrest analysis after cyclin B1 siRNA delivery
Type: cell-based
Settings: [siRNA]=200 nM, [compound b]=100 ng/mL, 24 h, no fetal bovine serum, n=3
Procedure: Flow cytometry for cell cycle analysis. Human lung cancer cells, H460, at 2×10^5 cells/mL were treated with cyclin B1siRNA alone (200 nM) or compound b/siRNA complex ([compound b]=100 ng/mL, [cyclin B1 siRNA]=200 nM) in RPMI 1640 medium for […] at 37° C., 5% CO2(g). After the treatments, cells were washed twice in PBS buffer solution and fixed in cold. PBS solution containing 75% ethanol. After washing with PBS and centrifugation at 1,500 rpm for 5 min, cells were stained with propidium iodide (PI) and analyzed by FACS Calibur (BD PharMingen, N.J., USA) using WinMDI 2.9 analysis software. The cyclic B1 siRNA sequence is 5′-[…]-3 (SEQ ID NO: 1) for sense and 5′-[…]-3 (SEQ ID NO: 2) (NCBI accession number of cyclin B1: NM031966) for anti-sense.
PEI has a high cationic density and can associate with nucleic acids such as siRNA to form a cationic polyplex. The efficiency of the PEI according to the invention as a delivery vehicle for siRNA was examined. Compound b (LPEI) was used to associate with a siRNA for silencing Cyclin B1, which is an indispensable protein for cell mitosis. […] The population proportions of cells were analyzed and summarized in histogram profile (FIG. 4E). […]
H460 lung cancer cells were treated with compound b/siRNA complex for 24 h, and the cell cycle distribution was examined by flow cytometry. […] FL2A: fluorescence pulse area. *p<0.05.

Substance: siRNA alone: cyclin B1 siRNA, sense SEQ ID NO: 1, anti-sense SEQ ID NO: 2 (sense ACAUGAGAGCCAUCCUAAUUGTT; antisense CAAUUAGGAUGGCUCUCAUGUTT; chemistry not given here)
- population in G2/M phase of the cell cycle, increase compared with control: 5.52%±0.406
